We go through 1 compound from publication PMC7594721, “Synthesis and biological activity of 2-cyanoacrylamide derivatives tethered to imidazopyridine as TAK1 inhibitors” (Journal of Enzyme Inhibition and Medicinal Chemistry, 2020).

“Also recorded” adds a separate entry of the source.

For one assay, the target named is T1, TAK1 (Homo sapiens, UniProt O43318).
T1 construct: purchased Invitrogen (Thermo Fisher Scientific)
T1 sequence (O43318 with tags, fused parts or gaps limits assumed): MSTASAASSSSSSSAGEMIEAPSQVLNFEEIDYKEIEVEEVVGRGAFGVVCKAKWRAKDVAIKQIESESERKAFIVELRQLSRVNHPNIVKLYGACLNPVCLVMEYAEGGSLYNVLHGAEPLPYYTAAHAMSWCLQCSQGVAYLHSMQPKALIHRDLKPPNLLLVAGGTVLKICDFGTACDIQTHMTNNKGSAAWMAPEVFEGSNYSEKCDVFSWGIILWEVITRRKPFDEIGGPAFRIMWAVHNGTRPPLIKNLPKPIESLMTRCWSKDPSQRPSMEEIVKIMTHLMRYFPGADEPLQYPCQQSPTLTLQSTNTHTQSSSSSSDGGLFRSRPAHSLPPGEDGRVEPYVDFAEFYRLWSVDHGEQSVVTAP
Nature of the assay: TAK1 LanthaScreen Eu Kinase Binding Assay (Invitrogen; Table 1 calls it TAK1 enzymatic assay). Here is the method:
(§1) Kinase assays were performed by Invitrogen (now Thermo Fisher Scientific, Waltham, MA) or Reaction Biology Corp. (Malvern, PA). Inhibitory activity of compounds for TAK1 was evaluated using LanthaScreen® Eu Kinase Binding Assay (Invitrogen, Waltham, MA). The kinase profile of compound 13h was determined by the kinase HotSpot Profiling service of Reaction Biology Corporation. All assays were performed at Km for ATP.
Table 1. TAK1 enzymatic assay with imidazopyridine derivatives. ^a In-vitro enzymatic assay data obtained from Invitrogen^TM.

A further assay has as its target T2, ZAK/MLTK (Homo sapiens, UniProt Q9NYL2).
T2 construct: purchased Reaction Biology Corp
Nature of the assay: Kinase HotSpot profiling (Reaction Biology Corp.). Type of assay: biochemical. The note with it: ATP at Km. Here is the method:
as §1

The next assay concerns the target T3, MEKK6 (Homo sapiens, UniProt O95382).
T3 construct: purchased Reaction Biology Corp
T3 sequence (O95382 1-1288): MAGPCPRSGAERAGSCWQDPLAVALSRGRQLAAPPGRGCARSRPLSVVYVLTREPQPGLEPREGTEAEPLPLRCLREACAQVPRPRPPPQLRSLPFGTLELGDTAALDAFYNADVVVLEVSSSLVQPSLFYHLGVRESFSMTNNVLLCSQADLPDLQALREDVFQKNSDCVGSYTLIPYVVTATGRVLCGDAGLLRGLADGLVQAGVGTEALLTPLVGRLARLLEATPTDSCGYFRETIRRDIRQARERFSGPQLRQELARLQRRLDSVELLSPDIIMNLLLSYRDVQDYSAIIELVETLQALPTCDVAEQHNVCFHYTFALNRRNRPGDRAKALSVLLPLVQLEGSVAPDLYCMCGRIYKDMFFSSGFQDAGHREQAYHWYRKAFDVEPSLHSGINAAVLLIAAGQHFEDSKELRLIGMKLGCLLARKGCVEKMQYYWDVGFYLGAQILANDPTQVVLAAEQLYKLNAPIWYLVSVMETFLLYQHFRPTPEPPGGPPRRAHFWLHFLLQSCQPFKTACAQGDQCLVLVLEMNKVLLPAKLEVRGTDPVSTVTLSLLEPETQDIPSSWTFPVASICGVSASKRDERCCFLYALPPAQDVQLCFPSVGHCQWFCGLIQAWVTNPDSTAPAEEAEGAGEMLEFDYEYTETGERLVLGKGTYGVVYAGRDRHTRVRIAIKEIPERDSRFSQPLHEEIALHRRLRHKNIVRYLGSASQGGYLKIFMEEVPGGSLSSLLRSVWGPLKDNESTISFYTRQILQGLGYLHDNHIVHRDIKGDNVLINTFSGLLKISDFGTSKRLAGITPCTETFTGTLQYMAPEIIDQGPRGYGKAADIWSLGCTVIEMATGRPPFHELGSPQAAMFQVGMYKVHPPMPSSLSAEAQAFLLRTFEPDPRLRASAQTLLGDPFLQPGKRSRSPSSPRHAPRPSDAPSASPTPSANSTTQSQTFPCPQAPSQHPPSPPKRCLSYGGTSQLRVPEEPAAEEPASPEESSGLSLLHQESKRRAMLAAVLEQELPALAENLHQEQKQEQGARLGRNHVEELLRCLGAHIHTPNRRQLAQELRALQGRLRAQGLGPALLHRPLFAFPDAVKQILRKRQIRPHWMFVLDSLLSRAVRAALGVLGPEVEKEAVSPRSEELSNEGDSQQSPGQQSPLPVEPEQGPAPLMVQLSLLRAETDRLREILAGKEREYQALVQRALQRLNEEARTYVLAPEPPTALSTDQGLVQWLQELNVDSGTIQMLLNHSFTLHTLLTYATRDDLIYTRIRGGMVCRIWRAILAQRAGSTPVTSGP
The assay can be described thus: Kinase HotSpot profiling (Reaction Biology Corp.). The assay is classed as biochemical. Particulars: ATP at Km. How it is done:
as §1

The target in another assay is T4, MLK2/MAP3K10 (Homo sapiens, UniProt Q02779).
T4 construct: purchased Reaction Biology Corp
T4 sequence (Q02779 whole entry): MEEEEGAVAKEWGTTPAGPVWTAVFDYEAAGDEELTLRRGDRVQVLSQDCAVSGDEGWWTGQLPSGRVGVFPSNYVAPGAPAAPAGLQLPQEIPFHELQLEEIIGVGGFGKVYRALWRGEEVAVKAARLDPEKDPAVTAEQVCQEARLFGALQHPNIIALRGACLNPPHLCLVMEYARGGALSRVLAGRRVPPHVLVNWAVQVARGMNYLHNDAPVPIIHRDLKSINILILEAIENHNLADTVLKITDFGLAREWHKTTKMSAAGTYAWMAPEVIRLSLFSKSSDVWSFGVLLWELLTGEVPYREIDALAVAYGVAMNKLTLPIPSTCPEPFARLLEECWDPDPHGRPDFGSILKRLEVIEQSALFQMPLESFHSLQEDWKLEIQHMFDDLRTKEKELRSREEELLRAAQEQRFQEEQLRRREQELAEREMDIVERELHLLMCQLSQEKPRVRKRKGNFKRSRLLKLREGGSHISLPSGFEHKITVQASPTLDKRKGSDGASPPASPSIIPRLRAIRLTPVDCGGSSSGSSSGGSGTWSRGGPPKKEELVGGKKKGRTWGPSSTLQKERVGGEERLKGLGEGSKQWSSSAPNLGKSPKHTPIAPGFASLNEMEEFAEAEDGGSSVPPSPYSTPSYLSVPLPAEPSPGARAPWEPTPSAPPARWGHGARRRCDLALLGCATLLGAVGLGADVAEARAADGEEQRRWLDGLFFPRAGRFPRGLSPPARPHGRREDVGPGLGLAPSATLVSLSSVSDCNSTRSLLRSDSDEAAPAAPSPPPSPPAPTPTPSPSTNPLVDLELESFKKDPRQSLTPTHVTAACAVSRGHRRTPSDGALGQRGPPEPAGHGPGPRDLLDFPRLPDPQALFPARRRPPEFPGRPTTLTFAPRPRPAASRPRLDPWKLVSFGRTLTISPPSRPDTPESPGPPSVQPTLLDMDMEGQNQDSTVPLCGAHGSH
Nature of the assay: Kinase HotSpot profiling (Reaction Biology Corp.). The assay is classed as biochemical. The note with it: ATP at Km. How it is done: as §1

A further assay deals with T5, MEK2/MAP2K2 (Homo sapiens, UniProt P36507).
T5 construct: purchased Reaction Biology Corp
T5 sequence (P36507 whole entry): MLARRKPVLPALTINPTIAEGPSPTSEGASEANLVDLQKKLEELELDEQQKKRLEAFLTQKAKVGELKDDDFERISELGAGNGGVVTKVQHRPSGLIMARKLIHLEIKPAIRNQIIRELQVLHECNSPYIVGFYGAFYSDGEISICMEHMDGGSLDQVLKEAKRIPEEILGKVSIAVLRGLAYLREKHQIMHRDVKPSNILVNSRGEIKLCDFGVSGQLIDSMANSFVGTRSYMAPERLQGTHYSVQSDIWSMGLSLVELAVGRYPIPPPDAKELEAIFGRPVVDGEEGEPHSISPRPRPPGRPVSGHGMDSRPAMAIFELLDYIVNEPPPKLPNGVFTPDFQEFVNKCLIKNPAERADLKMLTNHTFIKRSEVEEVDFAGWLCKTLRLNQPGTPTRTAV
Nature of the assay: Kinase HotSpot profiling (Reaction Biology Corp.). The assay is classed as biochemical. The note with it: ATP at Km. How it is done:
as §1

The test system of another assay is MDA-MB-231 cells. The assay can be described thus: Caspase-3/7 assay (Apo-ONE). Particulars: 0.5 µM, presence of TNFα (10 ng/ml), 24 h, MDA-MB-231. The assay is classed as cell-based. How it is done: MDA-MB-231 cells were obtained from the Korean Cell Line Bank. Cells were cultured in Roswell Park Memorial Institute (RPMI) 1640 medium containing 10% foetal bovine serum and 1% penicillin/streptomycin at 37 °C with 5% CO2 under humidified atmosphere.
The assay was performed using Apo-ONE® Homogeneous Caspase-3/7 Assay kits (Catalogue No. G7790, Promega, Madison, WI). MDA-MB-231 cells in a concentration of 5000 cells/100 µl were seeded in each well of a black 96-well plate and starved after adhering to the plate. The cells were incubated for 24 h, and the serum-starved cells were treated with either Takinib or 13h in the presence or absence of TNFα (10 ng/ml). All samples and the control contained DMSO in a final concentration of 0.5%. After another 24 h of incubation, 100 µL of Apo-ONE® caspase-3/7 reagent was added to each well, and the cells were incubated at room temperature in darkness for 2 h. Fluorescence was then measured at 530 nm with excitation at 485 nm using a FlexStation 3 Multi-Mode microplate reader (Molecular Devices). Statistical analyses of the data included a one-way ANOVA, followed by Tukey’s multiple comparison test.

T2 sequence (Q9NYL2 whole entry): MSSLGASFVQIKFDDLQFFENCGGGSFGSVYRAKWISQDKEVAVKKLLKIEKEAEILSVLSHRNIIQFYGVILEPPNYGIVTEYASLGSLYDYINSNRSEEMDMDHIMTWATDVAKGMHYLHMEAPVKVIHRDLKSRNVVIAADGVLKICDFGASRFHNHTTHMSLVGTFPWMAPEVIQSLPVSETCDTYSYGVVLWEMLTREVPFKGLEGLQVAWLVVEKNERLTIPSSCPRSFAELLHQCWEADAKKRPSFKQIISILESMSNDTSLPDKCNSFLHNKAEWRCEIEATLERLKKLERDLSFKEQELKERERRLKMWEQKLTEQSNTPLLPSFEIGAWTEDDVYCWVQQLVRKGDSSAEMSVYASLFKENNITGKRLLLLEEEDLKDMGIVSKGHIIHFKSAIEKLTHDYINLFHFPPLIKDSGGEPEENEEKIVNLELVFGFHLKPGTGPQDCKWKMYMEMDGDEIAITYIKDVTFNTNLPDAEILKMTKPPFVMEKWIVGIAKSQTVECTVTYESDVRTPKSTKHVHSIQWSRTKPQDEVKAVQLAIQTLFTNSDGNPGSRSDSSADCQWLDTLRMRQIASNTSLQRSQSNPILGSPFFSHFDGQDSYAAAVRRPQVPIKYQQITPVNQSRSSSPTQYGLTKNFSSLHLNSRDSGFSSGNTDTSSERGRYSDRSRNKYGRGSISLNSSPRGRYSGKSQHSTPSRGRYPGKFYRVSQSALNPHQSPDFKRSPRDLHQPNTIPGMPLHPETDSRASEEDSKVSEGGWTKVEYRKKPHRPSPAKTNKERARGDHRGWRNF

On to `Cc1cccc(/C=C(\C#N)C(=O)N[C@@H]2CCN(c3c(Cl)cnc4[nH]c(-c5ccc(N6CCN(C)CC6)cc5)nc34)C2)n1` [Compound 13h, (R,E)-N-(1–(6-chloro-2–(4-(4-methylpiperazin-1-yl)phenyl)-3H-imidazo[4,5-b]pyridin-7-yl)pyrrolidin-3-yl)-2-cyano-3-(6-methylpyridin-2-yl)acrylamide], for which the “TAK1 potency, SAR result in words” value on TAK1 (Table 1 SAR discussion) is “maintained or improved potency; also recorded: excellent”. In addition, the IC50 at TAK1 (read-out: IC50 against TAK1) was 27 nM. Besides, the inhibition at 1 µM stood at 29 ± 1.4% against ZAK/MLTK, 0% against MEKK6, 30 ± 2% against MLK2/MAP3K10 and 23 ± 1.9% against MEK2/MAP2K2. In addition, the caspase-3/7 activity result in the assay with MDA-MB-231 cells is reported as “induced significant caspase activation”.
